Laboratory results as given in US20240190880A1 (THE REGENTS OF THE UNIVERSITY OF MICHIGAN, priority 2021, published 2024).

Biological target: T1, ER (Homo sapiens, UniProt P03372)
T1 construct: host or cells: T47D and MCF7 human breast cancer cells
T1 sequence (P03372 1-595): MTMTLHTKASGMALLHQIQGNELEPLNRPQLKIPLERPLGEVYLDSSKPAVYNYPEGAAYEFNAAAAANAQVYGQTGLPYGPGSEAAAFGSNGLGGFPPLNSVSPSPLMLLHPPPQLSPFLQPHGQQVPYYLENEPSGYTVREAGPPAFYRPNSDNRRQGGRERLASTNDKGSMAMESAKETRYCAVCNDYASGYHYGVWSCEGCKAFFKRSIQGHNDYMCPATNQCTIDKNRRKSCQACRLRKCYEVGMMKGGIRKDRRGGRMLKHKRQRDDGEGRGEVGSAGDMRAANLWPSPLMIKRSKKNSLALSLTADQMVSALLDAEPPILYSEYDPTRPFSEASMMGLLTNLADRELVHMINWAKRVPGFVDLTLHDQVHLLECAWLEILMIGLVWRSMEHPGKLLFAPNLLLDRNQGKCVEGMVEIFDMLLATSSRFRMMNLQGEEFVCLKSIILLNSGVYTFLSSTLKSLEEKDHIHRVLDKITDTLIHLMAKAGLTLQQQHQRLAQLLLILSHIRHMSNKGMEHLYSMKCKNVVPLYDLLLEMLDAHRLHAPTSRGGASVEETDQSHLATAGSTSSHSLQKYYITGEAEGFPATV
Assay: ER degradation activity, in-cell western blot analysis in T47D cells
Type: cell-based
Details: 16 hours, Table A does not say which cell line (T47D or MCF7), read-out: Potency (DC50)
In short: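 ER protein remaining after 16 h compound exposure is quantified in T47D cells by in-cell western, with a no-primary-antibody background control. Values are percentages of DMSO-treated signal.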

SMILES | DC50 [nM]
C[C@@H]1Cc2c([nH]c3ccccc23)[C@@H](c2c(F)cc(N3CCC4(CCN(CC(=O)N5Cc6cc7c(cc6C5)C(=O)N(C5CCC(=O)NC5=O)C7=O)CC4)C3)cc2F)N1CC(F)F (stereo partly drawn) [E 107, 6-(2-(2-(4-((1R,3R)-2-(2,2-difluoroethyl)-3-methyl-2,3,4,9-tetrahydro-1H-pyrido[3,4-b]indol-1-yl)-3,5-difluorophenyl)-2,8-diazaspiro[4.5]decan-8-yl)acetyl)-2-(2,6-dioxopiperidin-3-yl)-6,7-dihydropyrrolo[3,4-f]isoindole-1,3(2H,5H)-dione] | < 10
C[C@@H]1Cc2cc(O)ccc2[C@@H](c2ccc(N3CCC(C(=O)N4CC(CN5Cc6cc7c(cc6C5)C(=O)N(C5CCC(=O)NC5=O)C7=O)C4)CC3)cn2)N1CC(F)F (stereo partly drawn) [E 351, 6-((1-(1-(6-((1S,3R)-2-(2,2-difluoroethyl)-6-hydroxy-3-methyl-1,2,3,4-tetrahydroisoquinolin-1-yl)pyridin-3-yl)piperidine-4-carbonyl)azetidin-3-yl)methyl)-2-(2,6-dioxopiperidin-3-yl)-6,7-dihydropyrrolo[3,4-f]isoindole-1,3(2H,5H)-dione] | > 100
C[C@@H]1Cc2cc(O)ccc2[C@@H](c2c(F)cc(N3CC4(CCN(C(=O)CN5Cc6cc7c(cc6C5)C(=O)N(C5CCC(=O)NC5=O)C7=O)CC4)C3)cc2F)N1CC(F)F (stereo partly drawn) [E 45, 6-(2-(2-(4-((1S,3R)-2-(2,2-difluoroethyl)-6-hydroxy-3-methyl-1,2,3,4-tetrahydroisoquinolin-1-yl)-3,5-difluorophenyl)-2,7-diazaspiro[3.5]nonan-7-yl)-2-oxoethyl)-2-(2,6-dioxopiperidin-3-yl)-6,7-dihydropyrrolo[3,4-f]isoindole-1,3(2H,5H)-dione] | < 10
C[C@@H]1Cc2c([nH]c3ccccc23)[C@@H](c2cnc(N3CCC(CN4CCC(N5Cc6cc7c(cc6C5)C(=O)N(C5CCC(=O)NC5=O)C7=O)CC4)CC3)nc2)N1CC(F)F (stereo partly drawn) [E 261, 6-(1-((1-(5-((1R,3R)-2-(2,2-difluoroethyl)-3-methyl-2,3,4,9-tetrahydro-1H-pyrido[3,4-b]indol-1-yl)pyrimidin-2-yl)piperidin-4-yl)methyl)piperidin-4-yl)-2-(2,6-dioxopiperidin-3-yl)-6,7-dihydropyrrolo[3,4-f]isoindole-1,3(2H,5H)-dione] | 10 to 100
O=C1CCC(N2C(=O)c3cc4c(cc3C2=O)CN(CC2CCN(C(=O)C3CCN(c5ccc([C@@H]6c7ccc(O)cc7CC[C@@H]6c6ccccc6)cc5)CC3)CC2)C4)C(=O)N1 (stereo partly drawn) [E 204, 2-(2,6-dioxopiperidin-3-yl)-6-((1-(1-(4-((1R,2S)-6-hydroxy-2-phenyl-1,2,3,4-tetrahydronaphthalen-1-yl)phenyl)piperidine-4-carbonyl)piperidin-4-yl)methyl)-6,7-dihydropyrrolo[3,4-f]isoindole-1,3(2H,5H)-dione] | 10 to 100
C[C@@H]1Cc2c([nH]c3ccccc23)[C@@H](c2c(F)cc(N3CCC(CN4CC(N5Cc6cc7c(cc6C5)C(=O)N(C5CCC(=O)NC5=O)C7=O)C4)CC3)cc2F)N1CC(F)F (stereo partly drawn) [E 50, 6-(1-((1-(4-((1R,3R)-2-(2,2-difluoroethyl)-3-methyl-2,3,4,9-tetrahydro-1H-pyrido[3,4-b]indol-1-yl)-3,5-difluorophenyl)piperidin-4-yl)methyl)azetidin-3-yl)-2-(2,6-dioxopiperidin-3-yl)-6,7-dihydropyrrolo[3,4-f]isoindole-1,3(2H,5H)-dione] | > 100
C[C@@H]1Cc2c([nH]c3ccccc23)[C@@H](c2c(F)cc(-c3cnc(C(=O)N4CCC(N5Cc6cc7c(cc6C5)C(=O)N(C5CCC(=O)NC5=O)C7=O)CC4)nc3)cc2F)N1CC(F)F (stereo partly drawn) [E 309, 6-(1-(5-(4-((1R,3R)-2-(2,2-difluoroethyl)-3-methyl-2,3,4,9-tetrahydro-1H-pyrido[3,4-b]indol-1-yl)-3,5-difluorophenyl)pyrimidine-2-carbonyl)piperidin-4-yl)-2-(2,6-dioxopiperidin-3-yl)-6,7-dihydropyrrolo[3,4-f]isoindole-1,3(2H,5H)-dione] | 10 to 100
CN(c1ccc([C@H]2c3ccc(O)cc3CC[C@H]2c2ccccc2)cc1)C1CN([C@H]2CC[C@H](C(=O)N3Cc4cc5c(cc4C3)C(=O)N(C3CCC(=O)NC3=O)C5=O)CC2)C1 (stereo partly drawn) [E 395, 2-(2,6-dioxopiperidin-3-yl)-6-((1R,4s)-4-(3-((4-((1S,2R)-6-hydroxy-2-phenyl-1,2,3,4-tetrahydronaphthalen-1-yl)phenyl)(methyl)amino)azetidin-1-yl)cyclohexane-1-carbonyl)-6,7-dihydropyrrolo[3,4-f]isoindole-1,3(2H,5H)-dione] | > 100
C[C@@H]1Cc2c([nH]c3ccccc23)[C@@H](c2c(F)cc(N3CCC(N4CCN(C(=O)CN5Cc6cc7c(cc6C5)C(=O)N(C5CCC(=O)NC5=O)C7=O)CC4)CC3)cc2F)N1CC(F)F (stereo partly shown) [E 109] | < 10
C[C@@H]1Cc2c([nH]c3ccccc23)[C@@H](c2ccc(C3CCC(C(=O)N4CCC(N5Cc6cc7c(cc6C5)C(=O)N(C5CCC(=O)NC5=O)C7=O)CC4)CC3)cn2)N1CC(F)F (stereo partly drawn) [E 313, 6-(1-(4-(6-((1S,3R)-2-(2,2-difluoroethyl)-3-methyl-2,3,4,9-tetrahydro-1H-pyrido[3,4-b]indol-1-yl)pyridin-3-yl)cyclohexane-1-carbonyl)piperidin-4-yl)-2-(2,6-dioxopiperidin-3-yl)-6,7-dihydropyrrolo[3,4-f]isoindole-1,3(2H,5H)-dione] | 10 to 100
C[C@@H]1Cc2cc(O)ccc2C(c2ccc(N3CCC(C(=O)N4CCC(N5Cc6cc7c(cc6C5)C(=O)N(C5CCC(=O)NC5=O)C7=O)CC4)CC3)cn2)N1CC(F)F (stereo partly drawn) [E 322, 6-(1-(1-(6-((3R)-2-(2,2-difluoroethyl)-6-hydroxy-3-methyl-1,2,3,4-tetrahydroisoquinolin-1-yl)pyridin-3-yl)piperidine-4-carbonyl)piperidin-4-yl)-2-(2,6-dioxopiperidin-3-yl)-6,7-dihydropyrrolo[3,4-f]isoindole-1,3(2H,5H)-dione] | > 100
C[C@@H]1Cc2c([nH]c3ccccc23)[C@@H](c2c(F)cc(N3CCC(C(=O)N4CCC(CN5Cc6cc7c(cc6C5)C(=O)N(C5CCC(=O)NC5=O)C7=O)CC4)CC3)cc2F)N1CC(F)F (stereo partly drawn) [E 233, 6-((1-(1-(4-((1R,3R)-2-(2,2-difluoroethyl)-3-methyl-2,3,4,9-tetrahydro-1H-pyrido[3,4-b]indol-1-yl)-3,5-difluorophenyl)piperidine-4-carbonyl)piperidin-4-yl)methyl)-2-(2,6-dioxopiperidin-3-yl)-6,7-dihydropyrrolo[3,4-f]isoindole-1,3(2H,5H)-dione] | > 100
C[C@@H]1Cc2c([nH]c3ccccc23)[C@@H](c2c(F)cc(N3CCC(N4CCN(CC(=O)N5Cc6cc7c(cc6C5)C(=O)N(C5CCC(=O)NC5=O)C7)CC4)CC3)cc2F)N1CC(F)F (stereo partly drawn) [E 96, 3-(6-(2-(4-(1-(4-((1R,3R)-2-(2,2-difluoroethyl)-3-methyl-2,3,4,9-tetrahydro-1H-pyrido[3,4-b]indol-1-yl)-3,5-difluorophenyl)piperidin-4-yl)piperazin-1-yl)acetyl)-1-oxo-3,5,6,7-tetrahydropyrrolo[3,4-f]isoindol-2(1H)-yl)piperidine-2,6-dione] | < 10

Same assay, conditions: compounds 16 hours, Table A does not say whether T47D or MCF7, read-out: Potency (DC50)

SMILES | DC50 [nM]
C[C@@H]1Cc2c([nH]c3ccccc23)[C@@H](c2ncc(C3=CCC(C(=O)N4CCC(N5Cc6cc7c(cc6C5)C(=O)N(C5CCC(=O)NC5=O)C7=O)CC4)CC3)cc2F)N1CC(C)(C)F (stereo partly drawn) [E 484, 2-(2,6-dioxopiperidin-3-yl)-6-(1-(4-(5-fluoro-6-((1S,3R)-2-(2-fluoro-2-methylpropyl)-3-methyl-2,3,4,9-tetrahydro-1H-pyrido[3,4-b]indol-1-yl)pyridin-3-yl)cyclohex-3-ene-1-carbonyl)piperidin-4-yl)-6,7-dihydropyrrolo[3,4-f]isoindole-1,3(2H,5H)-dione] | > 100
O=C1CCC(N2C(=O)c3cc4c(cc3C2=O)CN(C[C@H]2CC[C@H](C(=O)N3CC(Oc5ccc([C@@H]6c7ccc(O)cc7CC[C@@H]6c6ccccc6)cc5)C3)CC2)C4)C(=O)N1 (mixture of isomers) [E 498, 2-(2,6-dioxopiperidin-3-yl)-6-(((IRS,4SR)-4-(3-(4-((1R,2S)-6-hydroxy-2-phenyl-1,2,3,4-tetrahydronaphthalen-1-yl)phenoxy)azetidine-1-carbonyl)cyclohexyl)methyl)-6,7-dihydropyrrolo[3,4-f]isoindole-1,3(2H,5H)-dione] | 10 to 100
O=C1CCC(N2C(=O)c3cc4c(cc3C2=O)CN(CC2CCC3(CC2)CCN(C(=O)c2ccc([C@@H]5c6ccc(O)cc6CC[C@@H]5c5ccccc5)cc2)CC3)C4)C(=O)N1 (stereo partly drawn) [E 492, 2-(2,6-dioxopiperidin-3-yl)-6-((3-(4-((1R,2S)-6-hydroxy-2-phenyl-1,2,3,4-tetrahydronaphthalen-1-yl)benzoyl)-3-azaspiro[5.5]undecan-9-yl)methyl)-6,7-dihydropyrrolo[3,4-f]isoindole-1,3(2H,5H)-dione] | > 100
